In paper PMC9516332 (Frontiers in Oncology, 2022):
Where two headings read alike, the source gives them in different places.

Tested on: 134 cancer cell lines
Assay: Cell viability assay (ATPlite, 72 hours), IC50 on cancer cell line panel

Cc1cc(Nc2ncnc3ccc(NC4=NC(C)(C)CO4)cc23)ccc1Oc1ccn2ncnc2c1 [tucatinib]
IC50 (HEC-6, read-out: IC50 in cell proliferation assay, HEC-6 cell line (EGFR p.A289V)): 14.8 µM | IC50 (Homo sapiens, 769-P, read-out: IC50 in cell proliferation assay, cell line 769-P): 20.2 µM | IC50 (Homo sapiens, 786-0, read-out: IC50 in cell proliferation assay, cell line 786-O): 21.3 µM | IC50 (Homo sapiens, A 172, read-out: IC50 in cell proliferation assay, cell line A-172): 17.4 µM | IC50 (Homo sapiens, A204, read-out: IC50 in cell proliferation assay, cell line A-204): 11.4 µM | IC50 (Homo sapiens, A498, read-out: IC50 in cell proliferation assay, cell line A-498): 20.4 µM | IC50 (Homo sapiens, A549, read-out: IC50 in cell proliferation assay, cell line A-549): 25.7 µM | IC50 (Homo sapiens, A704, read-out: IC50 in cell proliferation assay, cell line A-704): > 31.6 µM | IC50 (Homo sapiens, A-375, read-out: IC50 in cell proliferation assay, cell line A-375 (BRAF p.V600E)): 11.3 µM | IC50 (Homo sapiens, A-427, read-out: IC50 in cell proliferation assay, cell line A-427): 22.2 µM | IC50 (Homo sapiens, ACHN, read-out: IC50 in cell proliferation assay, cell line ACHN): 13.9 µM | IC50 (Homo sapiens, AN3-CA, read-out: IC50 in cell proliferation assay, cell line AN3-CA (FGFR2 p.N549K)): 24.5 µM | IC50 (Homo sapiens, ASPC1, read-out: IC50 in cell proliferation assay, cell line AsPC-1): > 31.6 µM | IC50 (Homo sapiens, AU565, read-out: IC50 in cell proliferation assay, cell line AU565 (ERBB2 amplification)): 0.125 µM | IC50 (Homo sapiens, BT-20, read-out: IC50 in cell proliferation assay, cell line BT-20): 28.8 µM | IC50 (Homo sapiens, BT-474, read-out: IC50 in cell proliferation assay, cell line BT-474 (ERBB2 amplification)): 0.029 µM | IC50 (Homo sapiens, BT-549, read-out: IC50 in cell proliferation assay, cell line BT-549): 15.9 µM | IC50 (Homo sapiens, BXPC-3, read-out: IC50 in cell proliferation assay, cell line BxPC-3): 12.6 µM | IC50 (Homo sapiens, C-33-A, read-out: IC50 in cell proliferation assay, cell line C-33 A): 0.412 µM | IC50 (Homo sapiens, CAL-27, read-out: IC50 in cell proliferation assay, cell line CAL-27): 13.7 µM | IC50 (Homo sapiens, CCF-STTG1, read-out: IC50 in cell proliferation assay, cell line CCF-STTG1): > 31.6 µM | IC50 (Homo sapiens, CCRF-CEM, read-out: IC50 in cell proliferation assay, cell line CCRF-CEM): 17.7 µM | IC50 (Homo sapiens, COLO 205, read-out: IC50 in cell proliferation assay, cell line COLO 205 (BRAF p.V600E)): 22.2 µM | IC50 (Homo sapiens, COLO-829, read-out: IC50 in cell proliferation assay, cell line COLO 829 (BRAF p.V600E)): 20.6 µM | IC50 (Homo sapiens, DLD-1, read-out: IC50 in cell proliferation assay, cell line DLD-1): 23.2 µM | IC50 (Homo sapiens, DU-4475, read-out: IC50 in cell proliferation assay, cell line DU4475 (BRAF p.V600E)): 10.7 µM | IC50 (Homo sapiens, Daoy, read-out: IC50 in cell proliferation assay, cell line Daoy): 30.2 µM | IC50 (Homo sapiens, DoTc2-4510, read-out: IC50 in cell proliferation assay, cell line DoTc2 4510): 5.59 µM | IC50 (Homo sapiens, EOL1, read-out: IC50 in cell proliferation assay, cell line EoL-1 (FIP1L1-PDGFRA)): 4.24 µM | IC50 (Homo sapiens, FaDu, read-out: IC50 in cell proliferation assay, cell line FaDu): 14.1 µM | IC50 (Homo sapiens, G-361, read-out: IC50 in cell proliferation assay, cell line G-361 (BRAF p.V600E)): 13.5 µM | IC50 (Homo sapiens, HCC827, read-out: IC50 in cell proliferation assay, cell line HCC827 (EGFR exon19del)): 2.38 µM | IC50 (Homo sapiens, HCC4006, read-out: IC50 in cell proliferation assay, cell line HCC4006 (EGFR exon19del)): 6.56 µM | IC50 (Homo sapiens, HCT-15, read-out: IC50 in cell proliferation assay, cell line HCT 15): 16.7 µM | IC50 (Homo sapiens, HCT-116, read-out: IC50 in cell proliferation assay, cell line HCT 116): 21.9 µM | IC50 (Homo sapiens, HEC-1, read-out: IC50 in cell proliferation assay, HEC-1 cell line): 13.9 µM | IC50 (Homo sapiens, HEC-1B, read-out: IC50 in cell proliferation assay, HEC-1-B cell line (EGFR p.A864V)): 1.62 µM | IC50 (Homo sapiens, HL-60, read-out: IC50 in cell proliferation assay, HL-60 cell line): 16.9 µM | IC50 (Homo sapiens, HT, read-out: IC50 in cell proliferation assay, HT cell line): 29.9 µM | IC50 (Homo sapiens, HT-1080, read-out: IC50 in cell proliferation assay, HT-1080 cell line): 17.2 µM | IC50 (Homo sapiens, Hs746T, read-out: IC50 in cell proliferation assay, Hs 746.T cell line (MET exon14skip + amplification)): 12.4 µM | IC50 (Homo sapiens, Hs-578T, read-out: IC50 in cell proliferation assay, Hs 578T cell line): 24.1 µM | IC50 (Homo sapiens, HuTu80, read-out: IC50 in cell proliferation assay, HuTu 80 cell line): 0.623 µM | IC50 (Homo sapiens, J82, read-out: IC50 in cell proliferation assay, J82 cell line): > 31.6 µM | IC50 (Homo sapiens, Jurkat E6.1, read-out: IC50 in cell proliferation assay, Jurkat E6.1 cell line): 14.7 µM | IC50 (Homo sapiens, K562, read-out: IC50 in cell proliferation assay, K-562 cell line): 8.53 µM | IC50 (Homo sapiens, KATO III, read-out: IC50 in cell proliferation assay, KATO III cell line (FGFR2 amplification)): 17.9 µM | IC50 (Homo sapiens, KG-1, read-out: IC50 in cell proliferation assay, KG-1 cell line (FGFR1OP2-FGFR1)): 16.2 µM | IC50 (Homo sapiens, KLE, read-out: IC50 in cell proliferation assay, KLE cell line): 4.74 µM | IC50 (Homo sapiens, KMS-11, read-out: IC50 in cell proliferation assay, KMS-11 cell line (FGFR3 p.Y373C)): 18.2 µM | IC50 (Homo sapiens, KU812, read-out: IC50 in cell proliferation assay, Ku812 cell line): 22.6 µM | IC50 (Homo sapiens, Kasumi 1, read-out: IC50 in cell proliferation assay, Kasumi-1 cell line (KIT p.N822K)): 24.3 µM | IC50 (Homo sapiens, LC-2-ad, read-out: IC50 in cell proliferation assay, LC-2/ad cell line (CCDC6-RET)): 22.5 µM | IC50 (Homo sapiens, LNCaP-Clone-FGC, read-out: IC50 in cell proliferation assay, LNCaP clone FGC cell line): 21.8 µM | IC50 (Homo sapiens, LS174T, read-out: IC50 in cell proliferation assay, LS174T cell line): 20.3 µM | IC50 (Homo sapiens, LS-411N, read-out: IC50 in cell proliferation assay, LS411N cell line (BRAF p.V600E)): 21.4 µM | IC50 (Homo sapiens, LoVo, read-out: IC50 in cell proliferation assay, LoVo cell line): 25.7 µM | IC50 (Homo sapiens, MCF7, read-out: IC50 in cell proliferation assay, MCF-7 cell line): 30.5 µM | IC50 (Homo sapiens, MDA-MB-231, read-out: IC50 in cell proliferation assay, MDA-MB-231 cell line): 22.5 µM | IC50 (Homo sapiens, MDA-MB-453, read-out: IC50 in cell proliferation assay, MDA-MB-453 cell line): 5.93 µM | IC50 (Homo sapiens, MDA-MB-468, read-out: IC50 in cell proliferation assay, MDA-MB-468 cell line): 8.88 µM | IC50 (Homo sapiens, MG-63, read-out: IC50 in cell proliferation assay, MG-63 cell line): 29.4 µM | IC50 (Homo sapiens, MIA PaCa-2, read-out: IC50 in cell proliferation assay, MIA PaCa-2 cell line): 18.3 µM | IC50 (Homo sapiens, MKN-45, read-out: IC50 in cell proliferation assay, MKN45 cell line (MET amplification)): 17.1 µM | IC50 (Homo sapiens, MOLM-13, read-out: IC50 in cell proliferation assay, MOLM-13 cell line (FLT3 ITD)): 14.3 µM | IC50 (Homo sapiens, MOLT-4, read-out: IC50 in cell proliferation assay, MOLT-4 cell line): 20.3 µM
